Reference: patent US12691118B2, “Allosteric agonists and positive allosteric modulators of Glucagon-like peptide 1 receptor” (University of the Sciences, priority 2019, dated 2026)
“Also recorded” adds a separate entry of the source. Ends that are not written are not given here.

Legend:
INS-1 832/13 cells = test: Glucose stimulated insulin production in INS-1 832/13 cells; format: cell-based, rat; conditions: 16.7 mM glucose
Experimental: INS-1 832/13 cells were cultured in RPMI 1640 supplemented with 2 mM L-glutamine, 1 mM sodium pyruvate, 10% FBS, 10 mM HEPES, 100 units/ml penicillin, 100 μg/ml streptomycin, and 50 μM β-mercaptoethanol. Cells were maintained in an incubator at 37° C. with 5% CO2. To determine the effect of GLP-1R agonist Ia and PAM Ib on insulin production, INS-1 cells were seeded onto 24 well plates. After 48 hours of incubation, cells were washed twice with 200 μl of Krebs-Ringer Bicarbonate (KRB) buffer and starved for 2 hours in fresh KRB supplemented with 0.1% serum. […] After 20 minutes, the supernatant was collected, centrifuged at 1000 rpm for 5 min at 4° C., and aliquoted and stored at −20° C. These samples were used to determine insulin concentration using insulin detection kit ELISA following the manual.

[1] = target: T1, Vasoactive Intestinal Polypeptide Receptor 1 (VIPR1) (Homo sapiens, UniProt P32241); test: Non-specific effect on VIPR1, luciferase assay in HEK293 cells overexpressing VIPR1; format: cell-based; conditions: Ib 23.5 μM; VIPR peptide agonist 0.014 nM-145 nM
T1 construct: host or cells: HEK293 cells stably expressing CRE/CREB luciferase reporter
T1 sequence (P32241 31-457): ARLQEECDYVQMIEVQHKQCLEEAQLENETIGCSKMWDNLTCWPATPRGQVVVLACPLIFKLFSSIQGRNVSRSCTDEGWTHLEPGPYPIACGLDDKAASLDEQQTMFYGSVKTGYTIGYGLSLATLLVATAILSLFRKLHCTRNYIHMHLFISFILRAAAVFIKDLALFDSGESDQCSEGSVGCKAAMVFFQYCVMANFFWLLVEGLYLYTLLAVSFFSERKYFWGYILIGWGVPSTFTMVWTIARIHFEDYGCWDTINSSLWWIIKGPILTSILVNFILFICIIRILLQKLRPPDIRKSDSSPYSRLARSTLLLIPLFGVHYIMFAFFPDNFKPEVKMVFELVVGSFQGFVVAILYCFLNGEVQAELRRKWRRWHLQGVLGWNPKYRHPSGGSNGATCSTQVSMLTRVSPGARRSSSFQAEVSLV
Experimental: (§1) Compounds dissolved in 100% DMSO were diluted to indicated concentration in RPMI 1640 (0.5% DMSO included for all cell culture). After 4 hours of treatment, cells were harvested by cold luciferase cell culture lysis buffer and kept on shaker for 10 min at 4° C. Luciferase activity was measured using luciferin substrate and luminescence was read by Wallac 1420 multiplate reader. Luciferase activity of HEK293 reporting cells cultured using 0.5% DMSO and full RPMI medium was used as a vehicle control. Protein concentration of each well was determined by Bradford assay.
HEK293 cells stably expressing CRE/CREB Reporter (luciferase) were cultured in RPMI 1640 supplemented with 8% (v/v) fetal bovine serum, 2% (v/v) penicillin/streptomycin, and 100 μg/ml of Hygromycin B. Cells were maintained at 37° C. with 5% CO2. Cells were seeded into 6-well cell culture plates one day before transfection. After overnight incubation, cells were transiently transfected with 3.4 μg of VIPR1, using Lipofectamine 2000. After 4 hours of transfection, medium was replaced by RPMI supplemented with 5% (v/v) fetal bovine serum. After 24 hours of incubation, cells were trypsinized and seeded into 96 well cell culture plates (5.5×10^4 cells per well) and maintained at 37° C. in 5% CO2 for 24 hours. After 24 hours of incubation, the cells were starved with RPMI with 0.5% sera. […]

human GLP-1R = target: T2, human GLP-1R (Homo sapiens, UniProt P43220); test: CRE luciferase reporter assay in HEK293 cells transiently expressing human GLP-1R; format: cell-based; conditions: for GLP-1R activity stimulated by GLP-1 in combination with compound vs GLP-1 alone: GLP-1 0.014 nM-145 nM
T2 construct: Flag (N); host or cells: HEK293 cells stably expressing CRE/CREB luciferase reporter (BPS Bioscience #60515)
T2 sequence (P43220 24-463): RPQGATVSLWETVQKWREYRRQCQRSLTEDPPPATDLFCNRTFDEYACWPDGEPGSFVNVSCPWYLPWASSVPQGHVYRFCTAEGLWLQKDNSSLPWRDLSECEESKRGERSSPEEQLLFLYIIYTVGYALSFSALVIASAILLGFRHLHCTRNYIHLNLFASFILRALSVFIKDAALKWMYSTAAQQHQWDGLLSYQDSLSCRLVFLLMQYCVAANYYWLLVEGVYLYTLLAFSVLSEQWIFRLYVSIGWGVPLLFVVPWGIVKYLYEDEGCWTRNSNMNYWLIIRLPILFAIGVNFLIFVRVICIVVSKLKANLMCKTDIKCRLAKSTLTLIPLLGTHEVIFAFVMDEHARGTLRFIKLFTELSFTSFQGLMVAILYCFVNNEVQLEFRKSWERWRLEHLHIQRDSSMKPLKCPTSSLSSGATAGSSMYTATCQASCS
Experimental: HEK293 cells stably expressing CRE/CREB Reporter (luciferase) were cultured in RPMI medium supplemented with 8% (v/v) fetal bovine serum, 2% (v/v) penicillin/streptomycin, and 100 μg/ml of Hygromycin B. Cells were maintained in an incubator at 37° C. with 5% CO2. Cells were seeded into 6-well cell culture plates one day before transfection. After overnight incubation, one well of cell was transiently transfected with 3.4 μg of human GLP-1R or empty vector, respectively, using lipofectamine 2000. After 4 hours of transfection, transfection medium was replaced by RPMI medium supplemented with 5% (v/v) fetal bovine serum and 2% (v/v) penicillin/streptomycin. After 24 hours of incubation, cells were trypsinized and seeded into 96 well cell culture plates (5.5× 10^4 cells per well) and maintained at 37° C. in 5% CO2 incubator for 24 hours. The cells were starved using RPMI with 0.5% sera. After 24 hours of starvation, the transfected cells were treated with compounds as indicated.
as §1
The concentration-dependent dose response curve was generated using Graph Pad Prism 6.0 for Mac (GraphPad Software Inc., San Diego, CA). The curves were fitted based on sigmoidal dose response with the bottom parameter being kept 0. The EC50 value was calculated from Prism. The statistical difference between different groups was analyzed by 2-way ANOVA module in Prism.

[2] = Compound stability (statement); format: physicochemical

## GLP-1: GLP-1R peptide agonist (Sigma #9416), endogenous ligand of GLP-1R (HAEGTFTSDVSSYLEGQAAKEFIAWLVKGR; ends and bridges not checked; UniProt P01275 98-127, looked up) [reference compound]
INS-1 832/13 cells; GLP-1 0.18 μM, both time points
  insulin production compared to vehicle control: more than two-fold

## CCOC(=O)c1c(N)sc2c1CCCC2C (centres unmarked) [Compound Ib, ethyl 2-amino-7-methyl-4,5,6,7-tetrahydrobenzo[b]thiophene-3-carboxylate]
[1]
  non-specific activity on VIPR1 (VIPR1 activity with VIPR agonist in combination with Ib vs agonist alone): did not induce non-specific activity; also recorded: no potential non-specific activity on VIPR1
Human GLP-1R; Ib 23.5 μM
  GLP-1R activity stimulated by GLP-1 in combination with compound vs GLP-1 alone: significantly increased
INS-1 832/13 cells; Ib 11.75 μM + GLP-1 0.18 μM
  insulin secretion, Ib in combination with GLP-1 vs GLP-1 alone: more than 2.5 fold
INS-1 832/13 cells; Ib 11.75 μM alone
  amount of insulin produced by Ib compared with vehicle control: no significant difference

## CC1CCCc2c1sc1nc(S)n(N)c(=O)c21 (centres unmarked) [Compound Ic, 3-amino-2-mercapto-8-methyl-5,6,7,8-tetrahydrobenzo[4,5]thieno[2,3-d]pyrimidin-4(3H)-one]
Human GLP-1R; Ic 71 μM
  GLP-1R activity stimulated by GLP-1 in combination with compound vs GLP-1 alone: significantly increased
Human GLP-1R; compared with Ib
  potency as PAM (statement): less potent
[2]
  stability (statement): unstable
